Read-outs that look alike come from different tables or passages of the source. Each block holds one compound with its values, some of them ahead of it.
Experiments:
Assay type in all cases: cell-based
[1] = system: HAP1 MTAP-deleted cell line; assay: SDMA in-cell western assay, HAP1 MTAP-deleted; conditions: for IC50: Homo sapiens
Description: (§1) Table 1 also indicates IC50 values in an MTAP-isogenic cell line pair for exemplary compounds in an SDMA in-cell western assay (columns 7-8). HAP1 MTAP-intact is a cell line in which endogenous levels of MTAP are expressed, and HAP1 MTAP-deleted is an MTAP-null cell line.

[2] = system: HAP1 MTAP-intact cell line; assay: SDMA in-cell western assay, HAP1 MTAP-intact; conditions: Homo sapiens
Description: as §1

[3] = system: HAP1 MTAP-deleted cell line; assay: Viability assay, MTAP-deleted cell line; conditions: Homo sapiens
Description: Table 1 additionally indicates IC50 values in a viability assay for the MTAP-deleted cell line (column 10), indicating the effect of treatment with compound on cell survival.

[4] = HAP1, read-out: HAP1 MTAP deleted IC50
[5] = HAP1, read-out: MTAP HAP1 intact IC50
[6] = HAP1, read-out: HAP1 MTAP deleted viability
[7] = HAP1, SDMA in-cell western, HAP1 MTAP-intact, read-out: MTAP HAP1 intact IC50

Compound: Cc1cc(NC(=O)C(=O)N2C[C@@H](C)CC[C@@H]2c2ccc3[nH]ccc3c2)cnc1N (single isomer, unassigned) [Compound 388]
IC50 [1, 4]: > 1000 nM
IC50 [2, 5]: > 1000 nM
IC50 [3, 6]: > 10000 nM

Compound: C[C@H]1CC[C@H](c2ccc(O)cc2)N(C(=O)C(=O)Nc2cncc(C(N)=O)c2)C1 (single isomer, unassigned) [Compound 287]
IC50 [1, 4]: < 100 nM
IC50 [2, 5]: 100 to 1000 nM
IC50 [3, 6]: < 1000 nM

Compound: Cc1cc(NC(=O)C(=O)N2C[C@H](C)CC[C@H]2c2ccc(C(F)F)cc2)cnc1N (single isomer, unassigned) [Compound 419]
IC50 [1, 4]: < 100 nM
IC50 [2, 5]: 100 to 1000 nM
IC50 [3, 6]: 1000 to 10000 nM

Compound: Cc1cncc(NC(=O)C(=O)N2C[C@@H](C)CC[C@@H]2c2ccccc2)c1 (single isomer, unassigned) [Compound 2]
IC50 [1, 4]: > 1000 nM
IC50 [2, 5]: > 1000 nM
IC50 [3, 6]: > 10000 nM

Compound: C[C@@H]1CC[C@@H](c2ccc(O)cc2)N(C(=O)C(=O)Nc2cncc(C(N)=O)c2)C1 (single isomer, unassigned) [Compound 297]
IC50 [1, 4]: > 1000 nM
IC50 [2, 5]: > 1000 nM
IC50 [3, 6]: > 10000 nM

Compound: C[C@H]1CC[C@H](c2ccc3c(c2)CC(=O)N3)N(C(=O)C(=O)Nc2cncc(C(N)=O)c2)C1 (single isomer, unassigned) [Compound 319]
IC50 [1, 4]: < 100 nM
IC50 [2, 5]: 100 to 1000 nM
IC50 [3, 6]: 1000 to 10000 nM

Compound: C[C@@H]1CC[C@@H](c2ccc3[nH]ncc3c2)N(C(=O)C(=O)Nc2cncc(C(N)=O)c2)C1 (single isomer, unassigned) [Compound 361]
IC50 [1, 4]: < 100 nM
IC50 [2, 5]: 100 to 1000 nM
IC50 [3, 6]: < 1000 nM

Compound: C[C@@H]1CC[C@@H](c2ccc3[nH]ccc3c2)N(C(=O)C(=O)Nc2cncc(C(N)=O)c2)C1 (single isomer, unassigned) [Compound 372]
IC50 [1, 4]: > 1000 nM
IC50 [2, 5]: > 1000 nM
IC50 [3, 6]: > 10000 nM

Compound: Cc1cc(NC(=O)C(=O)N2CCCCC2c2ccccc2)cnc1C (stereo not shown) [Compound 139, N-(5,6-dimethylpyridin-3-yl)-2-oxo-2-(2-phenylpiperidin-1-yl)acetamide]
IC50 [1, 4]: > 1000 nM
IC50 [2, 5]: > 1000 nM
IC50 [3, 6]: > 10000 nM

Compound: C[C@H]1CC[C@H](c2ccc3[nH]ccc3c2)N(C(=O)C(=O)Nc2cncc(C(N)=O)c2)C1 (single isomer, unassigned) [Compound 481]
IC50 [1, 4]: < 100 nM
IC50 [2, 5]: 100 to 1000 nM
IC50 [3, 6]: < 1000 nM

IC50 [1, 4]: 100 to 1000 nM
IC50 [2, 5]: > 1000 nM
Compound: C[C@@H]1CC[C@@H](c2ccc3sc(C4CCN(C)CC4)nc3c2)N(C(=O)C(=O)Nc2cnc(N)c(C3CC3)c2)C1 (single isomer, unassigned) [Compound 1201]
IC50 [3, 6]: < 1000 nM

IC50 [1, 4]: < 100 nM
IC50 [2, 5]: 100 to 1000 nM
Compound: Cc1cc(NC(=O)C(=O)N2C[C@@H](C)CC[C@@H]2c2ccc(F)cc2)cnc1N (single isomer, unassigned) [Compound 242]
IC50 [3, 6]: < 1000 nM

IC50 [1, 4]: 100 to 1000 nM
IC50 [2, 5]: > 1000 nM
Compound: Cc1cc(NC(=O)C(=O)N2C[C@H](C)CC[C@@H]2c2ccccc2)cnc1N (single isomer, unassigned) [Compound 37]
IC50 [3, 6]: 1000 to 10000 nM

Compound: Cc1cc(NC(=O)C(=O)N2CCCC[C@@H]2c2ccccc2)cnc1C (single isomer, unassigned) [Compound 189]
IC50 [1, 4]: > 1000 nM
IC50 [2, 5]: > 1000 nM
IC50 [3, 6]: > 10000 nM

Compound: C[C@@H]1CC[C@@H](c2ccc(C(F)F)cc2)N(C(=O)C(=O)Nc2cncc(C(N)=O)c2)C1 (single isomer, unassigned) [Compound 358]
IC50 [1, 4]: > 1000 nM
IC50 [2, 5]: > 1000 nM
IC50 [3, 6]: > 10000 nM

IC50 [1, 4]: < 100 nM
IC50 [2, 5]: < 100 nM
Compound: Cc1cc(NC(=O)C(=O)N2C[C@H](C)CC[C@H]2c2ccc3sc(CN(C)C)nc3c2)cnc1N (racemic) [Compound 1106, N-(6-amino-5-methylpyridin-3-yl)-2-(2-(2-((dimethylamino)methyl)benzo[d]thiazol-5-yl)-5-methylpiperidin-1-yl)-2-oxoacetamide]
IC50 [3, 6]: < 1000 nM

Compound: Cc1cc(NC(=O)C(=O)N2CCCC[C@H]2c2ccccc2)cnc1C (single isomer, unassigned) [Compound 188]
IC50 [1, 4]: > 1000 nM
IC50 [2, 5]: > 1000 nM
IC50 [3, 6]: > 10000 nM

Compound: Cc1cc(NC(=O)C(=O)N2C[C@H](C)CC[C@H]2c2ccc(O)cc2)cnc1N (racemic) [Compound 164, rac-N-(6-amino-5-methylpyridin-3-yl)-2-((2R,5S)-2-(4-hydroxyphenyl)-5-methylpiperidin-1-yl)-2-oxoacetamide]
IC50 [1, 4]: < 100 nM
IC50 [2, 5]: 100 to 1000 nM
IC50 [3, 6]: < 1000 nM

Compound: C[C@H]1CC[C@H](c2ccc3[nH]ncc3c2)N(C(=O)C(=O)Nc2cncc(C(N)=O)c2)C1 (single isomer, unassigned) [Compound 360]
IC50 [1, 4]: > 1000 nM
IC50 [2, 5]: > 1000 nM
IC50 [3, 6]: > 10000 nM

Compound: Cc1cc(NC(=O)C(=O)N2C[C@H](C)CC[C@H]2c2ccc3[nH]ncc3c2)cnc1N (single isomer, unassigned) [Compound 363]
IC50 [1, 4]: < 100 nM
IC50 [2, 5]: < 100 nM
IC50 [3, 6]: < 1000 nM

IC50 [1, 4]: < 100 nM
IC50 [2, 5]: < 100 nM
Compound: COc1ncc(NC(=O)C(=O)N2C[C@@H](C)CC[C@@H]2c2ccc3sc(C4CCN(C)CC4)nc3c2)cc1C(N)=O (single isomer, unassigned) [Compound 1126]
IC50 [3, 6]: < 1000 nM

IC50 ([1]; HAP1, SDMA in-cell western, HAP1 MTAP-deleted, read-out: HAP1 MTAP deleted IC50): > 1000 nM
IC50 [2, 7]: > 1000 nM
Compound: COc1ncc(NC(=O)C(=O)N2C[C@H](C)CC[C@H]2c2ccc3sc(C)nc3c2)cc1C(N)=O (single isomer, unassigned) [Compound 808]
IC50 ([3]; HAP1, viability assay, HAP1 MTAP-deleted, read-out: HAP1 MTAP deleted viability): > 10000 nM

Compound: Cc1cc(NC(=O)C(=O)N2C[C@H](C)CC[C@H]2c2ccc3c(c2)CC(=O)N3)cnc1N (racemic) [Compound 373, N-(6-amino-5-methyl-3-pyridyl)-2-[5-methyl-2-(2-oxoindolin-5-yl)-1-piperidyl]-2-oxo-acetamide]
IC50 [1, 4]: < 100 nM
IC50 [2, 5]: 100 to 1000 nM
IC50 [3, 6]: < 1000 nM

Compound: Cc1cncc(NC(=O)C(=O)N2[C@H](c3ccccc3)CC[C@@H](C)[C@@H]2C)c1 (racemic) [Compound 23, rac-2-[(2S,3R,6S)-2,3-dimethyl-6-phenyl-1-piperidyl]-N-(5-methyl-3-pyridyl)-2-oxo-acetamide]
IC50 [1, 4]: > 1000 nM
IC50 [2, 5]: > 1000 nM
IC50 [3, 6]: > 10000 nM

Compound: Cc1cc(NC(=O)C(=O)N2C[C@H](C)CC[C@@H]2c2ccc3c(c2)CCC(=O)N3)cnc1N (racemic) [Compound 583, N-(6-Amino-5-methyl-3-pyridyl)-2-[(2R,5R)-5-methyl-2-(2-oxo-3,4-dihydro-1H-quinolin-6-yl)-1-piperidyl]-2-oxo-acetamide]
IC50 [1, 4]: < 100 nM
IC50 [2, 5]: < 100 nM
IC50 [3, 6]: < 1000 nM

Compound: Cc1cc(NC(=O)C(=O)N2C[C@@H](C)CC[C@@H]2c2ccc3c(c2)CCC(=O)N3)cnc1N (single isomer, unassigned) [Compound 502]
IC50 [1, 4]: < 100 nM
IC50 [2, 5]: 100 to 1000 nM
IC50 [3, 6]: < 1000 nM

IC50 [1, 4]: 100 to 1000 nM
IC50 [2, 5]: > 1000 nM
Compound: C[C@H]1CC[C@@H](c2ccccc2)N(C(=O)C(=O)Nc2cncc(C(N)=O)c2)C1 (single isomer, unassigned) [Compound 82]
IC50 [3, 6]: > 10000 nM

IC50 [1, 4]: < 100 nM
IC50 [2, 5]: < 100 nM
Compound: Cc1cc(NC(=O)C(=O)N2C[C@@H](C)CC[C@@H]2c2ccc3sc([C@H]4CCN(C)C(=O)C4)nc3c2)cnc1N [Compound 1333, N-(6-amino-5-methylpyridin-3-yl)-2-((2R,5S)-5-methyl-2-(2-(1-methyl-2-oxopiperidin-4-yl)benzo[d]thiazol-5-yl)piperidin-1-yl)-2-oxoacetamide]
IC50 [3, 6]: < 1000 nM

Compound: Cc1cc(NC(=O)C(=O)N2C[C@@H](C)CC[C@@H]2c2ccc3scnc3c2)cnc1N [Compound 616, N-(6-amino-5-methyl-3-pyridyl)-2-[(2R,5S)-2-(1,3-benzothiazol-5-yl)-5-methyl-1-piperidyl]-2-oxo-acetamide]
IC50 [1, 4]: < 100 nM
IC50 [2, 5]: 100 to 1000 nM
IC50 [3, 6]: < 1000 nM

Compound: Cc1cc(NC(=O)C(=O)N2C[C@H](C)CC[C@H]2c2ccc3[nH]ccc3c2)cnc1N (single isomer, unassigned) [Compound 385]
IC50 [1, 4]: < 100 nM
IC50 [2, 5]: 100 to 1000 nM
IC50 [3, 6]: < 1000 nM

Compound: Cc1cc(NC(=O)C(=O)N2C[C@H](C)CC[C@H]2c2ccc3cnccc3c2)cnc1N (single isomer, unassigned) [Compound 1000]
IC50 [1, 4]: < 100 nM
IC50 [2, 5]: 100 to 1000 nM
IC50 [3, 6]: < 1000 nM

Compound: [2H]c1nc2cc([C@H]3CC[C@H](C)CN3C(=O)C(=O)Nc3cnc(N)c(C)c3)ccc2s1 [Compound 1177]
IC50 [1, 4]: < 100 nM
IC50 [2, 5]: 100 to 1000 nM
IC50 [3, 6]: < 1000 nM

IC50 ([1]; HAP1, SDMA in-cell western, HAP1 MTAP-deleted, read-out: HAP 1 MTAP deleted IC50): > 1000 nM
IC50 [2, 7]: > 1000 nM
Compound: C[C@H]1CC[C@H](c2ccc(N)cn2)N(C(=O)C(=O)Nc2cncc(C(N)=O)c2)C1 (relative stereo) [Compound 594, 5-[[2-[(2R,5S)-2-(5-amino-2-pyridyl)-5-methyl-1-piperidyl]-2-oxo-acetyl]amino]pyridine-3-carboxamide]
MTAP intact/deleted ratio ([1]; IC50 ratio HAP1 MTAP-intact / HAP1 MTAP-deleted, SDMA in-cell western): B (an IC50 ratio greater than or equal to 3 fold but lower than 10 fold)
IC50 ([3]; HAP1, viability IC50, MTAP-deleted cell line, read-out: HAP1 MTAP deleted viability): > 10000 nM

Compound: Cc1cc(NC(=O)C(=O)N2C[C@H](C)CC[C@H]2c2ccc(O)cc2)cnc1N (single isomer, unassigned) [Compound 397]
IC50 [1, 4]: < 100 nM
IC50 [2, 5]: 100 to 1000 nM
IC50 [3, 6]: < 1000 nM

Source: patent US11999727B2 (Tango Therapeutics, Inc., priority 2020, dated 2024)
